Key:
[1] = system: PD-1; experiment: PD-1 expression in anti-CD3/CD28 bead-activated CD8+ T cells treated with Kyn or other tryptophan metabolites (flow cytometry); assay type: cell-based, mouse; settings: Kyn at different concentrations; 200 μM for different time periods; anti-CD3/CD28 microbeads
Experimental: (4) The isolated splenic CD8^+ T cells were incubated with anti-CD3/CD28 beads in the presence of different concentrations of Kyn. PD-1 expression was determined by flow cytometry.
(5) The experimental steps were the same as those of step (4), except that CD8^+ T cells were treated with 200 μM Kyn for different time periods as shown in FIG. 2E.
(6) Anti-CD3/CD28 bead-activated CTLs were treated with PBS, 200 μM Kyn or other metabolites (500 μM) from the tryptophan pathway (melatonin, kynurinic acid and indoxyle sulphate). After 24 h, PD-1 expression was determined by flow cytometry.

[2] = system: PAT4 and SLC7A8; experiment: PAT4 and SLC7A8 expression in activated CD8+ T cells (real-time PCR, immunostaining); assay type: cell-based, mouse; settings: activated CD8+ T cells, Kyn 200 μM, 24 h
Experimental: (2) Activated CD8^+ T cells were treated with PBS or Kyn (200 μM) for 24 h. The expression of PAT4 and SLC7A8 was determined by real-time PCR (left) and immunostaining (right). Bar, […].
(6) The mRNA expression of PAT4 and SLC7A8 was determined in activated CD8^+ T cells treated with PBS, Kyn, Kyn/CH-223191 (10 μM) or Kyn/DMF (20 μM) for 48 h.

[3] = system: OT-1 CD8^+ T cells; experiment: IFN-γ expression of OT-1 CD8+ T cells co-cultured with OVA-peptide loaded APCs; assay type: cell-based, mouse; settings: OT-1 CD8+ T cells pretreated with Kyn 200 μM 72 h, upon PD-1 blockade
Experimental: (10) Splenic APCs pulsed with OVA257-264 (2 μg/ml) were co-cultured with OT-1 CD8^+ T cells in the presence of IgG or anti-PD-1 neutralizing antibody (10 μg/ml) for 72 h. IFN-γ expression was measured by flow cytometry (left). Or, CD8^+ T cells from OT-1 mice were treated with Kyn (200 μM) for 72 h, then co-cultured with OVA-peptide loaded APCs and treated with or without anti-PD-1 neutralizing antibody for 72 h (right). The data represented mean±SEM.

[4] = system: PD-1; experiment: OVA-B16 melanoma-bearing mice with adoptively transferred CFSE-labeled OT-1 T cells, PD-1 expression; assay type: in vivo, mouse; settings: Kyn 50 μg/mouse i.p. once every two days, three times; Day 7
Experimental: (6) C57BL/6 mice with 5×5 mm OVA-B16 melanoma were adoptively transferred with CFSE-labeled OT-1 CD8^+ T cells (4×10^6 cells/mouse, once every three days) on three occasions. At the same time, some mice were i.p. injected with Kyn (50 μg/mouse, once every two days) for three times. On Day 7 after transferring, CFSE^+CD8^+ T cells were isolated from tumor for flow cytometric analysis of PD-1 expression.
(8) The experimental steps were the same as those of step (7), except that C57BL/6 mice were treated with Kyn, DMF (5 μg/mouse, o.t., twice every day) or Kyn+DMF for 6 days. CFSE^+CD8^+ T cells from tumor were isolated for flow cytometric analysis of PD-1 expression.

[5] = system: B16 melanoma; experiment: B16 melanoma-bearing C57BL/6 mice treated with Kyn, DMF or Kyn+DMF; assay type: in vivo, mouse
Experimental: (9) C57BL/6 mice with 5×5 mm B16 melanoma were treated with PBS, Kyn (50 μg/mouse, i.p., once every two days), DMF (5 μg/mouse, o.t., once every day) or Kyn+DMF for 6 days. PD-1 expression in CD8^+ T cells isolated from tumors was determined by flow cytometry (n=5). (14) The experimental steps were the same as those of step (9), except that the tumors were weighed. The weighing results were as shown in FIG. 6P. *p<0.05, **p<0.01; #p<0.05, ##p<0.01, as compared with CTL group. The data represented mean±SEM.

[6] = system: PD-1; experiment: ID8 ovarian cancer and H22 hepatocarcinoma ascites peritoneal tumor models; assay type: in vivo, mouse; settings: Kyn i.p., 6 days
Experimental: (10) C57BL/6 mice were intraperitoneally injected with 1×10^6 ID8 ovarian cancer cells. After 10 days, mice were intraperitoneally administered with PBS, Kyn, DMF or Kyn+DMF for 6 days. CD8^+ T cells from ascites were isolated and PD-1 expression was determined by flow cytometry (n=5).

[7] = system: AhR; experiment: AhR translocation in human peripheral CD8+ T cells; assay type: cell-based; settings: resting and activated peripheral CD8+ T cells from breast and lung cancer patients, Kyn treatment
[8] = system: PAT4 and SLC7A8; experiment: Effect of Kyn on the expression of PAT4 and SLC7A8 in OT-1 CD8+ T cells (fluorescence quantitative PCR); assay type: cell-based; settings: activated mouse CD8+ T cells, 200 μM Kyn, 48 h
Experimental: Splenic CD8^+ T cells of OT-1 mice were obtained by magnetic bead sorting, and seeded into a 24-well plate (1 million cells/well) while anti-CD3/CD28 magnetic beads were added to activate T cells. The culture medium was RPMI-1640 added with 10 ng/mL mouse IL-2 and […] β-mercaptoethanol. Cells were grouped and treated with drugs as follows. Control group 1 (PBS): culture medium+PBS; Experimental group 2 (Kyn): culture medium+200 μM Kyn; RNA was collected from cells in each group after 48 h, and the expression of PAT4 and SLC7A8 was determined by fluorescence quantitative PCR.

[9] = system: PD-1; experiment: Effect of SAR and BCH on PD-1 expression in mouse CD8+ T cells (flow cytometry); assay type: cell-based; settings: 200 μM Kyn, 48 h
Experimental: Mouse splenic CD8^+ T cells were obtained by magnetic bead sorting, and seeded into a U-shaped bottom 96-well plate (100000 cells/well) while anti-CD3/CD28 magnetic beads were added to activate T cells. The culture medium was RPMI-1640 added with 10 ng/mL mouse IL-2 and […] β-mercaptoethanol. Cells were grouped and treated with drugs as follows.
Control group 1 (PBS): culture medium+PBS;
Experimental group 2 (Kyn): culture medium+200 μM Kyn;
Experimental group 3 (Kyn+SAR): culture medium+200 μM Kyn+10 mM SAR;
Experimental group 4 (Kyn+BCH): culture medium+200 μM Kyn+100 μM BCH;
The expression level of PD-1 in CD8^+ T cells of each group was determined by flow cytometry after 48 h.

[10] = system: PAT4 and SLC7A8; experiment: Effect of Kyn on the expression of PAT4 and SLC7A8 in human peripheral blood CD8+ T cells (fluorescence quantitative PCR); assay type: cell-based; settings: activated peripheral blood CD8+ T cells of breast cancer patients, 200 μM Kyn, 48 h
Experimental: Mononuclear cells were isolated and obtained from the peripheral whole blood of breast cancer patients by using Ficoll. CD8^+ T cells were sorted by magnetic beads, and seeded into a U-shaped bottom 96-well plate (100000 cells/well) while anti-CD3/CD28 magnetic beads were added to activate T cells. The culture medium was RPMI-1640 added with 10 ng/mL human IL-2. Cells were grouped and treated with drugs as follows. Control group 1 (PBS): culture medium+PBS; Experimental group 2 (Kyn): culture medium+200 μM Kyn; RNA was collected from cells in each group after 48 h, and the expression of PAT4 and SLC7A8 was determined by fluorescence quantitative PCR.

Nc1ccccc1C(=O)CC(N)C(=O)O (stereo not drawn) [Kyn, kynurenine]
PD-1 expression [1]: markedly upregulated
expression of SLC7A8 and PAT4 [2]: strikingly resulted in the upregulation
production of IFN-γ [3]: upregulated
PD-1 expression in tumor-infiltrating CFSE+ T cells [4]: much higher levels of PD-1 expression
PD-1 expression in CD8+ T cells isolated from tumor, spleen or lymph nodes ([5]; Kyn 50 μg/mouse i.p. once every two days, 6 days): upregulate
tumor growth (tumors weighed) ([5]; Kyn-treatment): accelerated tumor growth
PD-1 expression in peritoneal, splenic or lymph node CD8+ T cells [6]: promoted
expression of IFN-γ and TNF-α [6]: inhibited
AhR localisation [7]: promoted the translocation of AhR from the cytosol to nucleus
expression of PAT4 and SLC7A8 [8]: significantly upregulating
expression of PD-1 in CD8+ T cells [9]: significant increased
expression of PAT4 and SLC7A8 [10]: significantly upregulating

Reference: patent US20210154162A1, “DRUG AND PHARMACEUTICAL COMPOSITION CONTAINING TRANSPORT PROTEIN INHIBITOR, AND USE” (Institute of Basic Medical Sciences Chinese Academy of …, priority 2018, published 2021)
